# Where two headings read alike, the source gives them in different places.
# Legend:
# [1] = target: T1, OR51E1 (Homo sapiens, UniProt Q8TCB6); conditions: another study and a more recent study; cited from earlier work
# T1 sequence (Q8TCB6 1-318): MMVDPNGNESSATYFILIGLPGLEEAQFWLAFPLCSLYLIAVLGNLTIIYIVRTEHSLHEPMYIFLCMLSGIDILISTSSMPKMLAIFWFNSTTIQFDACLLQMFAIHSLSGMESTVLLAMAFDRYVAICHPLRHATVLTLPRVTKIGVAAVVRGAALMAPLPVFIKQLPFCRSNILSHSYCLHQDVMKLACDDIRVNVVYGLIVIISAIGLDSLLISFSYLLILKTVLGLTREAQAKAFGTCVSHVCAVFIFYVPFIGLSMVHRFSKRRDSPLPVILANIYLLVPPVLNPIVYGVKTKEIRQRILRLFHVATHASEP
# [2] = target: T2, Olfr78 (Mus musculus, UniProt Q8VBV9); test: Luciferase dual reporter assay of Olfr78 expressed in HEK293T cells; format: cell-based
# T2 construct: host or cells: HEK293T
# T2 sequence (Q8VBV9 1-320): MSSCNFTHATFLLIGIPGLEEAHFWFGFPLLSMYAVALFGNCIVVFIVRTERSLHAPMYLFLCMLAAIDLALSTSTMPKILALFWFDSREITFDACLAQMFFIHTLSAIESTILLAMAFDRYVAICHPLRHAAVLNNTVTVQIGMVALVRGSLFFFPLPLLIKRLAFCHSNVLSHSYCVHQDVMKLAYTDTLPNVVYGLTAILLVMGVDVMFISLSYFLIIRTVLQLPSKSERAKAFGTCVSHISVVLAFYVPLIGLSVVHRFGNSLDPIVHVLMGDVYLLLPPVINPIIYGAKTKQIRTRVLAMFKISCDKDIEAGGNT
# Source text: pCl-Rho-Olfr78 plasmid construction and expression. The pCl-Rho-Olfr78 plasmid was made by PCR amplifying the Olfr78 coding region from a pCMV6-Olfr78 plasmid (OriGene) using forward primer 5′-[…]-3′ and reverse primer 5′-[…]-3′, adding EcoR1 and Not1 restriction sites. The Olfr78 PCR fragment was then digested with EcoR1 and Not1 and cloned into a pCl-Rho backbone cut from a pCl-Rho-Olfr62 plasmid (gift of Hiroaki Matsunami, Duke University). […] Cytoplasmic GFP (co-transfection marker) was expressed from a TBC1 D25::eGFP plasmid (gift of Suzanne Pfeffer, Stanford University).
# Luciferase assay. HEK293T cells were grown and seeded into 96 well plates. On the next day, cells were transfected with RTP1S, Gα15-olf (gifts of Hiroaki Matsunami, Duke University), pCMV6-Ric8b (Origene), pCRE-Luc (Agilent), and pSV40-RL (Promega) plasmids and either pCl-Rho-Olfr78 or pCl (Promega). The Rho tag on Olfr78 and RTP1S were used to enhance localization of Olfr78 to the plasma membrane. Gα15-olf and Ric8b were included as downstream effectors that couple to ORs to increase cAMP production upon OR activation. Two transcriptional luciferase reporters, one constitutive (Renilla, pSV40-RL) and one inducible by cAMP (firefly, pCRE-Luc) were transfected to report increased cAMP levels upon OR activation.
# Five hours after transfection, media was decanted and replaced with 50 μL/well MEM without phenol red (Life Technologies). After thirty minutes, 25 μL of chemicals were added to each well to achieve the indicated final concentrations, and cells were incubated for 2 hours. Sodium salts of chloride, L-lactate, propionate, and acetate (Sigma) were used.
# Reagents to detect firefly and Renilla luciferase activity (Dual-Glo Luciferase Assay System, Promega) were added at 20 μl/well. Luminescence was measured using an Infinite M1000 (Tecan) microplate reader and data acquired by Magellan Data Analysis Software (Tecan). Two readings were collected for each plate and luciferase reagent, and firefly to Renilla ratios were averaged. Data was from experiments conducted over three days. For dose response curves in FIG. 4a and FIGS. 11d-f, ratios were normalized to the highest and lowest average values for a given condition across all plates on each day.
# Data analysis and statistics. Data analysis and statistical tests were performed using Microsoft Excel and GraphPad software. GraphPad Prism 6 was used to fit dose-response curves using a variable slope model and to calculate EC50 values. All data are biological replicates, and quantitative data with error bars are presented as mean±standard error of the mean (s.e.m.) with the exception of FIG. 11c, which is presented as percent±standard error of percentage. […] No statistical method was used to predetermine sample size.
# [3] = system: carotid body; test: Carotid sinus nerve recordings (carotid body sensory activity); set-up: species or system mouse; conditions: 30 mM, PO2=625 mmHg; for Carotid sinus nerve activity, Olfr78-/- mutants: Olfr78-/- mutant nerves; for Carotid sinus nerve activity, Olfr78+/+: wild-type Olfr78+/+ preparations
# [4] = target: T3, OR51E2 (Homo sapiens, UniProt Q9H255); conditions: cited from earlier work
# T3 construct: host or cells: HEK293T
# T3 sequence (Q9H255 1-320): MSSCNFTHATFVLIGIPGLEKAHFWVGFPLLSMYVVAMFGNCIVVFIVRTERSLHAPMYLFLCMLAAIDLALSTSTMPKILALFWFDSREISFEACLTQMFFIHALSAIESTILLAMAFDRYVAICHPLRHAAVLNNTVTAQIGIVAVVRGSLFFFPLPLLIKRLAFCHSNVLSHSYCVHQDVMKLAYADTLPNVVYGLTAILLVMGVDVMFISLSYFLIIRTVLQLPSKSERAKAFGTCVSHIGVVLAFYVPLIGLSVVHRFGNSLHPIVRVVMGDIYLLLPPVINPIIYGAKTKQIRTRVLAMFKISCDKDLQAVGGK
# [5] = target: T2, Olfr78; conditions: cited from earlier work
# [6] = target: T1, OR51E1; conditions: screen of 93 named compounds; cited from earlier work
# [7] = system: carotid body glomus cells; test: Calcium imaging of GCaMP3-expressing carotid body glomus cells; format: cell-based, mouse; conditions: lactate 30 mM, cyanide 2 mM; whole carotid bodies and slice preparations; hyperoxia
# [8] = target: Olfr558 (Mus musculus, UniProt Q8VGZ7); conditions: screen of 93 named compounds; cited from earlier work
# [9] = target: T3, OR51E2; conditions: screen of 93 named compounds; cited from earlier work
# [10] = heterologous expression in HEK293T cells, same range of concentrations
# [11] = study looking at Olfr78 and OR51E2
# Sequence of Olfr558 (Q8VGZ7 entry or part of it): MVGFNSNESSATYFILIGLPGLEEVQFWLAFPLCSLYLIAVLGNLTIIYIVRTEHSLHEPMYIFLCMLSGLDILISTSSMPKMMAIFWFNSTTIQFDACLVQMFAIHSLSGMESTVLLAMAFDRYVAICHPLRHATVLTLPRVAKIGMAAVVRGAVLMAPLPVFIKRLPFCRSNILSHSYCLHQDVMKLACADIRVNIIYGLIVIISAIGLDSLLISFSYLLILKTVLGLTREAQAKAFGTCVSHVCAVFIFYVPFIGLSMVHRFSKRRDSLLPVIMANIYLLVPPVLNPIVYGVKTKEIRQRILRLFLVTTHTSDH
SMILES,Agonist activity at OR51E1 [1],"Carotid sinus nerve activity, Olfr78-/- mutants [3]","Carotid sinus nerve activity, Olfr78+/+ [3]","Activation of Olfr78 (in words) [2, 10]",further results
CCC(C)CC(=O)O (stereo not drawn) [3-methyl-valeric acid],agonists,–,–,–,–
CC(C)CCC(=O)O [4-methyl-valeric acid],agonists,–,–,–,–
"Cl [Chloride ion, chloride]",–,–,–,–,Activation of Olfr78 (in words) [2]: no effect
CC(=O)O [acetate],–,little effect,stimulate carotid sinus nerve activity,stimulated Olfr78,"Agonist activity at OR51E2 [4, 11]: agonists; Agonist activity at Olfr78 [5, 11]: agonists"
CCCCOC(=O)C(C)OC(=O)CCC (stereo not drawn) [butyl butylryllactate],–,–,–,–,Agonist activity at OR51E1 in chemical screen [6]: activated
O=CO [formate],–,–,–,–,Agonist activity at OR51E2 [4]: not; Agonist activity at Olfr78 [5]: not
CC(C)CC(=O)O [isovaleric acid],activated,–,–,–,–
"CC(O)C(=O)O (stereo not drawn) [lactate, 2-hydroxypropanoic acid]",–,little response,increased carotid sinus nerve activity,activated Olfr78 in a dose-dependent manner,"EC50 ([2]; heterologous expression in HEK293T cells, sodium salts, 2 hours stimulation, read-out: EC50 for activation of Olfr78): 4 mM; Calcium response of glomus cells [7]: induced calcium transients"
CCCCCCCCC(=O)O [nonanoic acid],activated,–,–,–,Agonist activity at OR51E1 in chemical screen [6]: activated; Agonist activity at Olfr558 in chemical screen [8]: activated
"CCC(=O)O [propionate, propionic acid]",activated,little effect,stimulate carotid sinus nerve activity,stimulated Olfr78,"Agonist activity at OR51E2 [4, 11]: agonists; Agonist activity at Olfr78 [5, 11]: agonists; Agonist activity at OR51E2 in chemical screen [9]: specifically activated"
